Results on 1 substance are retold here after patent US10973896B2, “Treatment or prevention of melanoma using photochemical internalization of a melanoma antigen” (PCI Biotech AS, priority 2014, dated 2021).

Common to all, as to type: in vivo, C57BL/6 mice
Assay [1] has as its system SIINFEKL-specific CD8 T cells. Description: Intradermal PCI immunisation, antigen-specific CD8 T cells in blood by pentamer flow cytometry (Example 1). The note with it: 10 μg OVA with or without 100 μg TPCS2a i.d., skin illuminated 18 hours later; FIG. 1A. As for the experimental part:
C57BL/6 mice were immunised at 6-10 weeks of age. One day prior to immunisation, 10,000 OT-I spleen and lymph node cells were administered by intravenous injection into the recipient C57BL/6 mice (see Example 2). The next day, the fur was shaven off the abdominal region and 100 μl of the vaccine preparations were injected intradermally. The doses of OVA and TPCS2a were 10 μg and 100 μg, respectively. After 18 hours, the anaesthetised mice were placed on the light source for six minutes illumination (4.86 J/cm2) for activation of TPCS2a.
The frequency of antigen-specific CD8 T cells was monitored in blood and spleen by flow cytometry using H-2K^b/SIINFEKL Pro5 pentamer (Proimmune, Oxford, UK). Cell-surface expression of CD4, CD8, and CD44 and intracellular production of IFN-γ was analysed by flow cytometry after Fc-receptor blocking with anti-CD16/32. The intracellular staining was after overnight incubation at 37° C. with 0.1 μg SIINFEKL. Brefeldin A (2.5 μg/ml) was added during the last 4 hours. The cells were fixed with 4% formaldehyde for 10 minutes, permeabilised in 0.1% NP40 for 3 minutes, and stained with anti-IFN-γ for 35 minutes. […] Acquisition was performed on FACSCanto (BD Biosciences, San Jose, USA) and data analysed with FlowJo 8.5.2 (Tree Star, Inc., Ashland, Oreg.). […] Supernatants were collected after 24-72 hours and analysed using cytokine ELISA kits (eBioscience).
In general terms: Flow cytometry measures light scatter and fluorescence of single cells or particles in a stream.

The test system of assay [2] is OVA-expressing B16 melanoma cells. In words: Prophylactic vaccination against intradermal melanoma challenge (Example 1). The note with it: B16 cells intradermally five days after immunisation; FIG. 1D.
Protocol: C57BL/6 mice were immunised at 6-10 weeks of age. […] The next day, the fur was shaven off the abdominal region and 100 μl of the vaccine preparations were injected intradermally. The doses of OVA and TPCS2a were 10 μg and 100 μg, respectively.
If not otherwise stated, C57BL/6 mice were vaccinated as described above 4-5 days prior to, or 7-8 days after, the tumour challenge with 500,000 OVA-expressing B16-melanoma cells injected intradermally into one of the mouse flanks; 10,000 OT-I cells were transferred intravenously to the recipient one day before prophylactic vaccination, or one day before B16 injection in the therapeutic vaccination model. […] The tumour growth was monitored by measuring the size of the neoplasm with a calliper.
Assay [3] relates to OVA-expressing B16-melanoma tumours. Description: Histological analysis of tumour and tumour infiltrates (Example 1). The note with it: immune histochemistry; FIG. 3A. On the procedure:
C57BLJ6 mice received 500,000 OVA-expressing B16-melanoma cells intradermally as described above. Six days later, the mice were vaccinated with 10 μg OVA ±100 μg TPCS2a as described above. On day 7, the mice were treated with 4.86 J/cm2 light. On day 15, the mice were euthanized and the tumours excised and cut in two pieces, one snap frozen in liquid nitrogen and one fixed in formalin (2 days) and 60% ethanol before embedded in paraffin. The frozen tissues were sectioned and stained with anti-mouse CD8, CD4, and caspase-3 antibodies for immune histochemistry. Paraffin sections were stained with haematoxylin and eosin.

Take “OVA: Chicken ovalbumin protein, model antigen expressed by the transfected B16 melanoma cells”: in assay [1], the “frequency of pentamer (H2K^d-SIINFEKL)-binding CD8 T cells in blood” value is reported as “No or little so-called cross priming”. Moreover, in assay [2], the “mice that developed tumours” value is “Fifty”. For the same substance, in assay [3], the “infiltration of CD8 T cells into the intradermal tumour” value is given as “no benefit compared to no treatment”.
